Results: US11458144B1, “Methods for using 5-HMF analogs with increased solubility to inhibit or reverse RBC sickling” (King Abdulaziz University, priority 2021, dated 2022)

Key:
SS RBCs = experiment: Antisickling study (RBC morphology) in SS blood under hypoxia; assay type: cell-based, human; settings: 2 mM; for antisickling activity relative to 5-HMF: over 5-HMF
Method: (§1) The effect of the MMA compounds and positive control 5-HMF on RBC sickling, Hb modification, and Hb oxygen equilibrium was studied utilizing SS blood following previous procedure.^[27]
For the antisickling study, SS blood (hematocrit 20%) were incubated under air in the absence or presence of all the MMA compounds (0.5 mM, 1 mM and 2 mM) at 37° C. for 1 h, followed by incubating the mixture under hypoxic conditions (2.5% O2) at 37° C. for 2 h. Aliquots with fixed 2% glutaraldehyde solution and under anaerobic condition were subjected to microscopic morphological analysis.^[11]
(§2) Using homozygous sickle (SS) blood from patients, the MMA compounds (MMA502, MMA503, MMA504, MMA505, and MMA509 were tested with 5-HMF as control for Hb adduct formation, effect on Hb affinity for oxygen and corresponding antisickling activities (RBC morphology study) using previously published protocols.^14,15

Hb [1] = molecular target: T1, Hb (Homo sapiens, UniProt P68871+P69905, E7V); experiment: Oxygen equilibrium study (P50 shift) of lysates from SS blood, Hemox Analyzer; assay type: cell-based; settings: SS RBCs
T1 construct: Using homozygous sickle (SS) blood from patients; endogenous in cells; host or cells: red blood cells of homozygous SS patient blood (hematocrit 20%); clarified lysates measured after incubation
Method: as §1
For the oxygen equilibrium study, about 100 μL aliquot of clarified lysate of residual samples from the above antisickling study was added to 4 mL of 0.1 M potassium phosphate buffer, pH 7.0, in cuvettes and subjected to hemoximetry analysis using Hemox™ Analyzer (TCS Scientific Corp., New Hope, Pa.) to assess P50 shift, which is the partial pressure of oxygen (PO2) at which 50% of Hb is saturated with oxygen (SO2). Degree of Hb O2 affinity shift (ΔP50) was expressed as percentage fractions of control DMSO-treated samples.
as §2

Hb [2] = molecular target: T1, Hb; experiment: Hb adduct formation (Hb modification) by cation-exchange HPLC, SS blood lysates; assay type: binding; settings: SS RBCs
Excerpt: as §1
The Hb adduct formation study also used clarified lysates that were subjected to a cation-exchange HPLC (Hitachi D-7000 Series, Hitachi Instruments, Inc., San Jose, Calif.), and a weak cation-exchange column (Poly CAT A: 30 mm×4.6 mm, Poly LC, Inc., Columbia, Md.).
as §2

HbA = molecular target: T2, HbA (Homo sapiens, UniProt P68871+P69905); experiment: Time-dependent Hb oxygen equilibrium study in normal whole blood; assay type: cell-based; settings: 2 mM, 20% hematocrit
T2 construct: time-dependent P50-shift of HbA in normal blood (20% hematocrit); endogenous in cells; host or cells: red blood cells in normal whole blood of adult donors (hematocrit 20%)
Method: The time-dependent effect of the MMA compounds and positive control 5-HMF on Hb oxygen affinity was studied using normal blood following previous procedure.^[15] Briefly, normal blood samples (hematocrit 20%) were incubated with the compounds at 37° C. for 24 h. Aliquots were taken at various time points and incubated in IL 237 tonometers (Instrumentation Laboratories, Inc. Lexington, Mass.) for 10 minutes at 37° C., and allowed to equilibrate at oxygen tensions 6, 20, and 40 mmHg. The samples were then aspirated into an ABL 700 Automated Blood Gas Analyzer (Radiometer) to determine the pH, partial pressure of CO2 (pCO2), partial pressure of oxygen (pO2), and Hb oxygen saturation values (SO2). The measured values of pO2 (mmHg) and SO2 at each pO2 value were then subjected to a non-linear regression analysis using the program Scientist (Micromath, Salt Lake City, Utah) to estimate P50 as previously reported.^[28]
5-HMF has a short half-life and poor oral bioavailability due to this metabolic instability, which in part prevented its development for chronic use. Nonetheless, this metabolic instability could be advantageous for parenteral formulation for acute use. […] Briefly, blood samples (hematocrit 20%) were incubated with the compounds at 37° C. for 24 h, and aliquots were taken at the various time points and used to determine the PO2 and SO2 using ABL 800 Automated Blood Gas Analyzer (Radiometer), and to estimate P50 as previously reported.^[10]
The study confirmed the trend in the biological potencies observed with SS blood.

| % Hb-O2 affinity (P50 shift vs DMSO control) (Hb [1]; 0.5 mM) [%] | % Hb-O2 affinity (P50 shift vs DMSO control) (Hb [1]; 1 mM) [%] | % Hb-O2 affinity (P50 shift vs DMSO control) (Hb [1]; 2 mM, listed as 505) [%] | % Hb-O2 affinity (P50 shift vs DMSO control) (Hb [1]; 2 mM, listed as MMA505) [%] | % Hb-modification (adduct formation) (Hb [2]; 0.5 mM) [%] | % Hb-modification (adduct formation) (Hb [2]; 1 mM) [%] | % Hb-modification (adduct formation) (Hb [2]; 2 mM, listed as 505) [%] | % Hb-modification (adduct formation) (Hb [2]; 2 mM, listed as MMA505) [%] | %P50 shift (HbA; at 1 hour) [%] | duration of effect on Hb oxygen affinity (HbA; time course 0-8 hrs) | % Hb-O2 affinity (P50 shift vs DMSO control) (Hb [1]; 2 mM, listed as 502) [%] | % Hb-O2 affinity (P50 shift vs DMSO control) (Hb [1]; 2 mM, listed as MMA502) [%] | % Hb-modification (adduct formation) (Hb [2]; 2 mM, listed as 502) [%] | % Hb-modification (adduct formation) (Hb [2]; 2 mM, listed as MMA502) [%] | % Hb-O2 affinity (P50 shift vs DMSO control) (Hb [1]; 2 mM, listed as 503) [%] | % Hb-O2 affinity (P50 shift vs DMSO control) (Hb [1]; 2 mM, listed as MMA503) [%] | % Hb-modification (adduct formation) (Hb [2]; 2 mM, listed as 503) [%] | % Hb-modification (adduct formation) (Hb [2]; 2 mM, listed as MMA503) [%] | Compound | antisickling activity relative to 5-HMF (SS RBCs) [fold] | inhibition at 2000 µM (SS RBCs; Homo sapiens, SS blood hematocrit 20%, 2.5% O2, 37° C., read-out: % Sickling inhibition) [%] |
| --- | --- | --- | --- | --- | --- | --- | --- | --- | --- | --- | --- | --- | --- | --- | --- | --- | --- | --- | --- | --- |
| 5.5 ± 1.2 | 14.6 ± 2.1 | 32.0 ± 3.0 | 40 | 4.2 ± 1.6 | 10.4 ± 2.6 | 26.7 ± 6.0 | 27 | 11 | completely losing activity after 3 hours | – | – | – | – | – | – | – | – | N#Cc1ccc(C=O)o1 [MMA-505, 5-formylfuran-2-carbonitrile] | ~2.5 | 55 |
| 14.2 ± 3.4 | 8.8 ± 0.5 | – | – | 9.6 ± 0.0 | 20.4 ± 6.6 | – | – | – | – | 31.5 ± 12.7 | 32 | 42.4 ± 10.9 | 42 | – | – | – | – | O=Cc1ccc(C(F)F)o1 [MMA-502, 5-(difluoromethyl)furan-2-carbaldehyde] | ~2.5 | – |
| 8.0 ± 1.1 | 20.0 ± 2.5 | – | – | 4.8 ± 2.1 | 18.0 ± 7.9 | – | – | – | – | – | – | – | – | 37.1 ± 2.5 | 37 | 34.6 ± 7.1 | 35 | O=Cc1ccc(-c2ccn[nH]2)o1 [MMA-503, 5-(1H-pyrazol-5-yl)furan-2-carbaldehyde] | – | – |
